Data published in US20050085447A1, “Pyrido[3,4-d]pyrimidine derivatives as matrix metalloproteinase-13 inhibitors” (Warner-Lambert Company LLC, priority 2003, published 2005).

Experiments:
MMP-1 full-length = biological target: T1, MMP-1 full-length (Homo sapiens, UniProt P03956); assay: Thiopeptolide substrate hydrolysis inhibition assay, MMP-1 full-length; type: biochemical; settings: full-length enzyme; read-out: MMP-1FL IC50
T1 construct: have also been assayed with MMP-1 full-length
T1 sequence (P03956 100-469): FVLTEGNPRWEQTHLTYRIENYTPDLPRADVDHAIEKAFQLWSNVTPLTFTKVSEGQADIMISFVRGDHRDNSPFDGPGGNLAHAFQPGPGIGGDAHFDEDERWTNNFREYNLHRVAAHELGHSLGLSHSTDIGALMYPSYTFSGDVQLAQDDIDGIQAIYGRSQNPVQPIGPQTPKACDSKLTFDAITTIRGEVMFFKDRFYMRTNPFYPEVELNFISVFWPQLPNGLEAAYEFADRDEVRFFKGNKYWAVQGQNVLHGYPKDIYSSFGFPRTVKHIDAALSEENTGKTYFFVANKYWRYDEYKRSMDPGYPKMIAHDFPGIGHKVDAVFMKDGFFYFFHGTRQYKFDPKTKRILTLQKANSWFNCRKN
From the text: (§1) The assay methods of Biological Examples 1-4 measure the amount by which a test compound reduces the hydrolysis of a thiopeptolide substrate catalyzed by a matrix metalloproteinase enzyme or catalytic domain thereof. It has been shown previously by Ye Qi-Zhuang, Hupe D., and Johnson L. (Current Medicinal Chemistry, 1996;3:407-418) that inhibitor activity against a catalytic domain of an MMP is predictive of the inhibitor activity against the respective full-length MMP enzyme. The methods described below for the inhibition of MMP-13 may also be adapted and used to determine the ability of the compounds of Formula I to inhibit other matrix metalloproteases such as MMP-1, MMP-2, MMP-3, MMP-7, MMP-8, MMP-9, MMP-12, MMP-14, MMP-17, and the like.
(§2) Thiopeptolide substrates show virtually no decomposition or hydrolysis at or below neutral pH in the absence of a matrix metalloproteinase enzyme. A typical thiopeptolide substrate commonly utilized for assays is Ac-Pro-Leu-Gly-thioester-Leu-Leu-Gly-OEt. A 100 μL assay mixture will contain 50 mM of N-2-hydroxyethylpiperazine-N′-2-ethanesulfonic acid buffer (“HEPES,” pH 7.0), 10 mM CaCl2, 100 μM thiopeptolide substrate, and 1 mM 5,5′-dithio-bis-(2-nitro-benzoic acid) (DTNB). […] The change in absorbance at 405 nm is monitored on a Thermo Max microplate reader (molecular Devices, Menlo Park, Calif.) at room temperature (22° C.). The calculation of the amount of hydrolysis of the thiopeptolide substrate is based on E412=13600 M^−1 cm^−1 for the DTNB-derived product 3-carboxy-4-nitrothiophenoxide. Assays are carried out with and without matrix metalloproteinase inhibitor compounds, and the amount of hydrolysis is compared for a determination of inhibitory activity of the test compounds.
(§3) Test compounds were evaluated at various concentrations in order to determine their respective IC50 values, the micromolar concentration of compound required to cause a 50% inhibition of catalytic activity of the respective enzyme.
(§4) Some representative compounds of Formula I have been evaluated for their ability to inhibit MMP-13, MMP-1FL, MMP-3CD, MMP-7FL, MMP-8FL, MMP-9FL, MMP-12CD, MMP-14CD, and/or MMP-17CD, wherein FL means full-length enzyme and CD means a catalytic domain of the full-length enzyme. Test compounds can be evaluated at various concentrations in order to determine their respective IC50 values, the micromolar concentration of compound required to cause a 50% inhibition of the hydrolytic activity of the respective enzyme.
(§5) Certain compounds of Formula I have also been assayed with MMP-1 full-length, MMP-3 catalytic domain, MMP-7 full-length, MMP-8 full-length, MMP-9 full-length, MMP-12 catalytic domain, MMP-14 catalytic domain, and MMP-17 catalytic domain. […] In Biological Table 2, the compound example numbers for the Compound Examples are indicated in the column labelled “Ex. No.”

MMP-13 catalytic domain = MMP-13 catalytic domain (Homo sapiens, UniProt P45452); assay: Thiopeptolide substrate hydrolysis inhibition assay, MMP-13 catalytic domain; type: biochemical; settings: MMP-13 catalytic domain; read-out: MMP-13CD IC50
From the text: The methods described below for the inhibition of MMP-13 may also be adapted and used to determine the ability of the compounds of Formula I to inhibit other matrix metalloproteases such as MMP-1, MMP-2, MMP-3, MMP-7, MMP-8, MMP-9, MMP-12, MMP-14, MMP-17, and the like.
Thiopeptolide substrates show virtually no decomposition or hydrolysis at or below neutral pH in the absence of a matrix metalloproteinase enzyme. A typical thiopeptolide substrate commonly utilized for assays is Ac-Pro-Leu-Gly-thioester-Leu-Leu-Gly-OEt. A 100 μL assay mixture will contain 50 mM of N-2-hydroxyethylpiperazine-N′-2-ethanesulfonic acid buffer (“HEPES,” pH 7.0), 10 mM CaCl2, 100 μM thiopeptolide substrate, and 1 mM 5,5′-dithio-bis-(2-nitro-benzoic acid) (DTNB). […] Assays are carried out with and without matrix metalloproteinase inhibitor compounds, and the amount of hydrolysis is compared for a determination of inhibitory activity of the test compounds.

MMP-8 full-length = biological target: T2, MMP-8 full-length (Homo sapiens, UniProt P22894); assay: Thiopeptolide substrate hydrolysis inhibition assay, MMP-8 full-length; type: biochemical; settings: full-length enzyme; read-out: MMP-8FL IC50
T2 construct: MMP-7 full-length, MMP-8 full-length, MMP-9 full-length
T2 sequence (P22894 101-467): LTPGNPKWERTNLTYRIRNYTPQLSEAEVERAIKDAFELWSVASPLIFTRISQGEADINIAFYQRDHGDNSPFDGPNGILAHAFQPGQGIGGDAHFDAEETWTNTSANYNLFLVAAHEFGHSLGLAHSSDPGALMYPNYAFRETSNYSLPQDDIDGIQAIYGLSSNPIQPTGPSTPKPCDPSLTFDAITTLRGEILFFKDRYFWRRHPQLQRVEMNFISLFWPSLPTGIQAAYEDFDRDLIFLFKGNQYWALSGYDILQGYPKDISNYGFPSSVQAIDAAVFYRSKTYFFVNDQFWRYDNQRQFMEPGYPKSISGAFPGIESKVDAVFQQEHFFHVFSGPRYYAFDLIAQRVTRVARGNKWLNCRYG
From the text: as §1, §2, §3, §4, §5

[1] = Pharmacokinetics in Sprague-Dawley rats (single IV or oral dose); type: in vivo, rat
From the text: For comparison purposes, a reference compound was separately characterized according to its pharmacokinetics properties except AUC in a similar manner. The reference compound (“Reference Compound 1”) was the compound of Example 188 of PCT International Patent Application Publication number WO 02/064572 A1, which is also described in PCT International Patent Application Publication number WO 02/064080 A2 in Table IVb on page 76, 5th species from the top. […] Reference Compound 1 is named 4-[6-(4-methoxy-benzylcarbamoyl)- 1 -methyl-2,4-dioxo- 1,4-dihydro-2H-pyrido[3,4-d]pyrimidin-3-ylmethyl]-benzoic acid, and has the structure drawn below: [drawing 98]

With COc1ccc(CNC(=O)c2cc3c(=O)n(Cc4ccc(C(=O)O)cc4)cnc3cn2)cc1 [Compound Example 1, 4-[6-(4-methoxy-benzylcarbamoyl)-4-oxo-4H-pyrido[3,4-d]pyrimidin-3-ylmethyl]-benzoic acid] as the compound, how does the IC50 (MMP-1 full-length) read?
The IC50 was greater than 100 µM.

And the IC50 (MMP-13 catalytic domain)?
Its IC50 is 0.0077 µM.

And the IC50 (MMP-8 full-length)?
The IC50 was greater than 100 µM.

And the clearance ([1]; rat, blood, Sprague-Dawley rats, single 5 mg/kg intravenous dose, read-out: IV CL)?
Its clearance is 7.1 mL/min/kg.

And the half-life ([1]; rat, blood, Sprague-Dawley rats, single 5 mg/kg intravenous dose, read-out: IV T1/2 (converted))?
Its half-life is 2.1 h.

What about the “PO AUC (ng/hr/mL)” value ([1]; rats, single 5 mg/kg oral dose) of the same compound?
Its value is 3,750 ng/hr/mL.
